Test results: US10375959B2, “Ternary herbicidal combination comprising saflufenacil” (BASF Agro B.V., priority 2015, dated 2019)
Values joined by “and” are separate entries in the source; they are usually repeats but may differ in a detail not shown here. Equal values may be shown once. Read-outs that look alike come from different tables or passages of the source.

How the values were obtained:
Type in all cases: in vivo
Brachiaria decumbens = assay: Greenhouse post-emergence herbicidal activity on BRADC (Surinam grass), 20 DAT
Description: (§1) The test plants were first grown to a height of 3 to 20 cm, depending on the plant habit, and only then treated (post-emergence treatment). Here, the herbicidal combinations were suspended, emulsified or dissolved in water as distribution medium and afterwards applied by spraying, using finely distributing nozzles.
(§2) The herbicides A, B and C were used as commercially available formulations and introduced to the spray liquor with the amount of solvent system used for applying the active compound. In the examples, the solvent used was water.
(§3) The test period extended over 20 days. During this time, the plants were tended, and their response to the treatments with active compounds was evaluated.
(§4) The evaluation for the damage caused by the chemical compositions was carried out using a scale from 0 to 100%, compared to the untreated control plants. Here, 0 means no damage and 100 means complete destruction of the plants.
(§5) The plants used in the greenhouse experiments belonged to the following species:
(§6) The value E, which is to be expected if the activity of the individual compounds is just additive, was calculated using the method of S. R. Colby (1967) “Calculating synergistic and antagonistic responses of herbicide combinations”, Weeds 15, p. 22 ff. For two component mixtures the value E was calculated by the following formula E=X+Y−(X·Y/100)
(§7) where X=effect in percent using a mixture of herbicides A and B at application rates a and b, respectively; • Y=effect in percent using herbicide C at an application rate c; • E=expected effect (in %) of A+B+C at application rates a+b+c.
(§8) If the value observed in this manner is higher than the value E calculated according to Colby, a synergistic effect is present.
(§9) Tables 1 to 41 relate to the herbicidal activities of the binary mixture of herbicides A and B, of herbicide C individually and of their combinations in post-emergence applications assessed 20 days after treatment (20 DAT).

Avena fatua = assay: Greenhouse post-emergence herbicidal activity on AVEFA (wild oat), 20 DAT
Description: as §1, §2, §3, §4, §5, §6, §7, §8, §9

Abutilon theophrasti = assay: Greenhouse post-emergence herbicidal activity on ABUTH (velvetleaf), 20 DAT; settings: for inhibition at 0.5 g/ha: 0.5 g ai/ha
Description: as §1, §2, §3, §4, §5, §6, §7, §8, §9

Echinochloa crus-galli = assay: Greenhouse post-emergence herbicidal activity on ECHCG (barnyardgrass), 20 DAT
Description: as §1, §2, §3, §4, §5, §6, §7, §8, §9

Digitaria sanguinalis = assay: Greenhouse post-emergence herbicidal activity on DIGSA (large crabgrass), 20 DAT
Description: as §1, §2, §3, §4, §5, §6, §7, §8, §9

Amaranthus retroflexus = assay: Greenhouse post-emergence herbicidal activity on AMARE (pig weed), 20 DAT
Description: as §1, §2, §3, §4, §5, §6, §7, §8, §9

Brachiaria platyphylla = assay: Greenhouse post-emergence herbicidal activity on BRAPP (broadleaf signalgrass), 20 DAT
Description: as §1, §2, §3, §4, §5, §6, §7, §8, §9

Setaria viridis = assay: Greenhouse post-emergence herbicidal activity on SETVI (green foxtail), 20 DAT
Description: as §1, §2, §3, §4, §5, §6, §7, §8, §9

Solarium nigrum = assay: Greenhouse post-emergence herbicidal activity on SOLNI (black nightshade), 20 DAT
Description: as §1, §2
The test period extended over 20 days. During this time, the plants were tended, and their response to the treatments with active compounds was evaluated. […]
The value E, which is to be expected if the activity of the individual compounds is just additive, was calculated using the method of S. R. Colby (1967) “Calculating synergistic and antagonistic responses of herbicide combinations”, Weeds 15, p. […] For two component mixtures the value E was calculated by the following formula E=X+Y−(X·Y/100) […]
as §8, §9

## CS(=O)(=O)NC(=O)c1cc(Oc2ccc(C(F)(F)F)cc2Cl)ccc1[N+](=O)[O-] [fomesafen]
Brachiaria decumbens; C 3.0 g ai/ha
  % activity 20 DAT: 30%
Avena fatua; C 1.5 g ai/ha
  % activity 20 DAT: 20%
Abutilon theophrasti; Abutilon theophrasti, 480 h, ABUTH, 3.0 g ai/ha, 20 DAT, read-out: % activity 20 DAT, solo C application
  inhibition at 3 g/ha: 20%
Abutilon theophrasti; Abutilon theophrasti, 480 h, ABUTH, C 1.5 g ai/ha
  pest or weed control at […]: 5%
Echinochloa crus-galli; Echinochloa crus-galli, 480 h, 1.5 g ai/ha, 20 DAT, read-out: % activity 20 DAT, solo C application
  inhibition at […]: 20%
Digitaria sanguinalis; Digitaria sanguinalis, 480 h, DIGSA, 1.5 g ai/ha, 20 DAT, read-out: % activity 20 DAT, solo C application
  inhibition at […]: 20%
Amaranthus retroflexus; Amaranthus retroflexus, 480 h, AMARE, 3.0 g ai/ha, 20 DAT, read-out: % activity 20 DAT, solo C application
  inhibition at 3 g/ha: 65%

## CCCCC(CC)COC(=O)COc1ccc(Cl)cc1Cl (stereo not shown) [2,4-D LV ester, 2-ethylhexyl ester of 2,4-D]
Abutilon theophrasti; ABUTH, C 6.25 g ai/ha
  % activity 20 DAT: 20%
Brachiaria platyphylla; C 6.25 g ai/ha
  % activity 20 DAT: 20%
Digitaria sanguinalis; DIGSA, C 6.25 g ai/ha
  % activity 20 DAT: 0%

## COc1c(Cl)ccc(Cl)c1C(=O)O [dicamba]
Abutilon theophrasti; Abutilon theophrasti, 480 h, ABUTH, C 4.375 g ai/ha
  pest or weed control at 4.375 g/ha: 40%
Brachiaria platyphylla; C 17.5 g ai/ha
  % activity 20 DAT: 40%

## CCOCN(C(=O)CCl)c1c(C)cccc1CC [acetochlor]
Avena fatua; C 50.0 g ai/ha
  % activity 20 DAT: 10%
Abutilon theophrasti; Abutilon theophrasti, 480 h, ABUTH, C 25.0 g ai/ha
  pest or weed control at 25 g/ha: 25%
Brachiaria platyphylla; C 50.0 g ai/ha
  % activity 20 DAT: 5%
Setaria viridis; C 50.0 g ai/ha
  % activity 20 DAT: 10%
Amaranthus retroflexus; AMARE, C 12.5 g ai/ha
  % activity 20 DAT: 0%

## CCSC(C)CC1CC(=O)C(/C(CC)=N/OC/C=C/Cl)=C(O)C1 (stereo not shown) [clethodim]
Avena fatua; C 0.75 g ai/ha
  % activity 20 DAT: 20%
Abutilon theophrasti; Abutilon theophrasti, 480 h, read-out: % activity 20 DAT
  pest or weed control at 0.75 g/ha: 5%
Abutilon theophrasti; Abutilon theophrasti, 480 h, read-out: % activity 20 DAT, solo C application
  inhibition at 0.75 g/ha: 5%
Digitaria sanguinalis; Digitaria sanguinalis, 480 h, read-out: % activity 20 DAT, solo C application
  inhibition at 0.75 g/ha: 0%
Amaranthus retroflexus; Amaranthus retroflexus, 480 h, read-out: % activity 20 DAT, solo C application
  inhibition at 0.75 g/ha: 20%

## CCC(CC)Nc1c([N+](=O)[O-])cc(C)c(C)c1[N+](=O)[O-] [pendimethalin]
Avena fatua; C 150.0 g ai/ha
  % activity 20 DAT: 0%
Abutilon theophrasti; Abutilon theophrasti, 480 h, ABUTH, C 37.5 g ai/ha
  pest or weed control at 37.5 g/ha: 0%
Echinochloa crus-galli; C 75.0 g ai/ha
  % activity 20 DAT: 0%
Echinochloa crus-galli; C 150.0 g ai/ha
  % activity 20 DAT: 0%

## C#CCN1C(=O)COc2cc(F)c(N3C(=O)C4=C(CCCC4)C3=O)cc21 [flumioxazin]
Setaria viridis; C 0.5 g ai/ha
  % activity 20 DAT: 40%

## Cc1c(C(=O)c2cnn(C)c2O)ccc(S(C)(=O)=O)c1C1=NOCC1 [topramezone]
Brachiaria decumbens; C 0.25 g ai/ha
  % activity 20 DAT: 0%
Brachiaria decumbens; C 0.5 g ai/ha
  % activity 20 DAT: 0%
Avena fatua; 0.25 g ai/ha, 20 DAT
  % activity 20 DAT, solo C application: 0%
Abutilon theophrasti; ABUTH, 0.25 g ai/ha, 20 DAT
  % activity 20 DAT, solo C application: 10%
Abutilon theophrasti; ABUTH, C 0.25 g ai/ha
  % activity 20 DAT: 10% and 0%
Echinochloa crus-galli; 0.25 g ai/ha, 20 DAT
  % activity 20 DAT, solo C application: 25%
Echinochloa crus-galli; C 0.25 g ai/ha
  % activity 20 DAT: 25% and 20%
Setaria viridis; 0.25 g ai/ha, 20 DAT
  % activity 20 DAT, solo C application: 0%
Setaria viridis; C 0.25 g ai/ha
  % activity 20 DAT: 0%
Setaria viridis; C 0.5 g ai/ha
  % activity 20 DAT: 0%
Amaranthus retroflexus; AMARE, 0.25 g ai/ha, 20 DAT
  % activity 20 DAT, solo C application: 40%
Amaranthus retroflexus; AMARE, C 0.25 g ai/ha
  % activity 20 DAT: 40%

## CCOc1nc(F)cc2nc(S(=O)(=O)Nc3c(Cl)cccc3Cl)nn12 [diclosulam]
Abutilon theophrasti; ABUTH, 0.125 g ai/ha, 20 DAT
  % activity 20 DAT, solo C application: 10%
Echinochloa crus-galli; C 1.0 g ai/ha
  % activity 20 DAT: 20%
Brachiaria platyphylla; 1.0 g ai/ha, 20 DAT
  % activity 20 DAT, solo C application: 45%
Digitaria sanguinalis; DIGSA, C 0.5 g ai/ha
  % activity 20 DAT: 25%
Solarium nigrum; C 0.125 g ai/ha
  % activity 20 DAT: 0%

## CCc1cnc(C2=NC(C)(C(C)C)C(=O)N2)c(C(=O)O)c1 (stereo not shown) [imazethapyr]
Avena fatua; C 0.5 g ai/ha
  % activity 20 DAT: 0%
Digitaria sanguinalis; DIGSA, C 0.5 g ai/ha
  % activity 20 DAT: 15%
Digitaria sanguinalis; DIGSA, C 2.0 g ai/ha
  % activity 20 DAT: 20%
Amaranthus retroflexus; AMARE, C 1.0 g ai/ha
  % activity 20 DAT: 55%

## COC[C@H](C)N(C(=O)CCl)c1c(C)csc1C [dimethenamid-P]
Avena fatua; C 75.0 g ai/ha
  % activity 20 DAT: 20%
Abutilon theophrasti; ABUTH, 37.5 g ai/ha, 20 DAT
  % activity 20 DAT, solo C application: 0%
Echinochloa crus-galli; 75 g ai/ha, 20 DAT
  % activity 20 DAT, solo C application: 80%
Brachiaria platyphylla; C 75.0 g ai/ha
  % activity 20 DAT: 5%
Amaranthus retroflexus; AMARE, 37.5 g ai/ha, 20 DAT
  % activity 20 DAT, solo C application: 0%
Amaranthus retroflexus; AMARE, C 18.75 g ai/ha
  % activity 20 DAT: 0%

## COCc1cnc(C2=NC(C)(C(C)C)C(=O)N2)c(C(=O)O)c1 (stereo not shown) [imazamox]
Abutilon theophrasti; Abutilon theophrasti, 480 h, ABUTH, 20 DAT, Table 38, read-out: % activity 20 DAT, solo C application
  inhibition at 0.5 g/ha: 0%
Abutilon theophrasti; Abutilon theophrasti, 480 h, ABUTH, C 0.5 g ai/ha
  pest or weed control at 0.5 g/ha: 0%
Echinochloa crus-galli; C 0.5 g ai/ha
  % activity 20 DAT: 0%
Digitaria sanguinalis; DIGSA, C 1.0 g ai/ha
  % activity 20 DAT: 15%
Digitaria sanguinalis; Digitaria sanguinalis, 480 h, DIGSA, 0.5 g ai/ha, 20 DAT, read-out: % activity 20 DAT, solo C application
  inhibition at 0.5 g/ha: 10%
Setaria viridis; Setaria viridis, 480 h, 0.5 g ai/ha, 20 DAT, read-out: % activity 20 DAT, solo C application
  inhibition at 0.5 g/ha: 15%
Amaranthus retroflexus; AMARE, C 0.125 g ai/ha
  % activity 20 DAT: 10%
Amaranthus retroflexus; Amaranthus retroflexus, 480 h, AMARE, 0.5 g ai/ha, 20 DAT, read-out: % activity 20 DAT, solo C application
  inhibition at 0.5 g/ha: 40%

## CCNc1nc(Cl)nc(NC(C)C)n1 [atrazine]
Avena fatua; C 12.5 g ai/ha
  % activity 20 DAT: 0%
Abutilon theophrasti; Abutilon theophrasti, 480 h, ABUTH, 12.5 g ai/ha, 20 DAT, read-out: % activity 20 DAT, solo C application
  inhibition at 12.5 g/ha: 25%
Brachiaria platyphylla; C 12.5 g ai/ha
  % activity 20 DAT: 0%
Setaria viridis; Setaria viridis, 480 h, 25.0 g ai/ha, 20 DAT, read-out: % activity 20 DAT, solo C application
  inhibition at 25 g/ha: 25%

## CS(=O)(=O)c1ccc(C(=O)C2C(=O)CCCC2=O)c([N+](=O)[O-])c1 [mesotrione]
Abutilon theophrasti; Abutilon theophrasti, 480 h, ABUTH, 0.625 g ai/ha, 20 DAT, read-out: % activity 20 DAT, solo C application
  inhibition at 0.625 g/ha: 75%
Brachiaria platyphylla; 20 DAT, C 5.0
  % activity: 35%
Brachiaria platyphylla; Urochloa platyphylla, 480 h, 5.0 g ai/ha, 20 DAT, read-out: % activity 20 DAT, solo C application
  inhibition at 5 g/ha: 40%
Digitaria sanguinalis; DIGSA, C 2.5 g ai/ha
  % activity 20 DAT: 80%
Amaranthus retroflexus; AMARE, 20 DAT, C 0.625
  % activity: 0%

## CS(=O)(=O)c1cc(C(F)(F)F)ccc1C(=O)c1cnoc1C1CC1 [isoxaflutole]
Abutilon theophrasti; Abutilon theophrasti, 480 h, ABUTH, 20 DAT, Table 36, read-out: % activity 20 DAT, solo C application
  inhibition at 0.5 g/ha: 50%
Abutilon theophrasti; Abutilon theophrasti, 480 h, ABUTH, C 1.0 g ai/ha
  pest or weed control at 1 g/ha: 85%
Brachiaria platyphylla; C 2.0 g ai/ha
  % activity 20 DAT: 40%
Digitaria sanguinalis; DIGSA, C 1.0 g ai/ha
  % activity 20 DAT: 25%
Solarium nigrum; C 0.5 g ai/ha
  % activity 20 DAT: 70%
